Experimental data as given in ChEMBL document CHEMBL5518209, “Caltrop-like Small-Molecule Antidotes That Neutralize Unfractionated Heparin and Low-Molecular-Weight Heparin In Vivo” (J Med Chem, 2024).
The source made the active and inactive calls. The rule behind the calls is not given here.

Legend:
[1] = organism: Homo sapiens; assay: Neutralization of dalteparin sodium in human poor platelet plasma at 10 to 50 ug/ml by aPTT assay relative to control; assay type: cell-free; conditions: dose 10-50 µg/ml
[2] = organism: Homo sapiens; assay: Neutralization of enoxaparin sodium in human poor platelet plasma at 10 to 50 ug/ml by aPTT assay relative to control; assay type: cell-free; conditions: dose 10-50 µg/ml
[3] = organism: Homo sapiens; assay: Neutralization of nadroparin calcium in human poor platelet plasma at 10 to 50 ug/ml by aPTT assay relative to control; assay type: cell-free; conditions: dose 10-50 µg/ml
[4] = organism: Bos taurus; assay: Neutralization of enoxaparin sodium in bovine plasma at 10 to 60 ug/ml by aPTT assay; assay type: cell-free; conditions: dose 10-60 µg/ml
[5] = Binding affinity to unfractionated heparin in saline at pH 7.4 assessed as binding constant by ITC analysis
[6] = Binding affinity to enoxaparin sodium in saline at pH 7.4 assessed as binding constant by ITC analysis
[7] = Binding affinity to nadroparin calcium in saline at pH 7.4 assessed as binding constant by ITC analysis
[8] = Binding affinity to unfractionated heparin in saline at pH 7.4 assessed as change in entropy by ITC analysis
[9] = Binding affinity to enoxaparin sodium in saline at pH 7.4 assessed as change in entropy by ITC analysis
[10] = Binding affinity to nadroparin calcium in saline at pH 7.4 assessed as change in entropy by ITC analysis
[11] = Binding affinity to dalteparin sodium in saline at pH 7.4 assessed as change in gibbs free energy by ITC analysis
[12] = Binding affinity to enoxaparin sodium in saline at pH 7.4 assessed as change in gibbs free energy by ITC analysis
[13] = Binding affinity to nadroparin calcium in saline at pH 7.4 assessed as change in gibbs free energy by ITC analysis
[14] = tested on: Blood; assay: Ex vivo neutralization of enoxaparin sodium in Sprague-Dawley rat whole blood assessed as restoration of blood coagulation at 10 to 15 ug/ml incubated for 15 mins; assay type: functional, tissue-based; conditions: dose 10-15 µg/ml
[15] = organism: Homo sapiens; assay: Reversal of anticoagulation of unfractionated heparin in human whole blood assessed as restoration of normal clotting time at 5 to 20 ug/ml incubated for 5 mins by thromboelastography; assay type: tissue-based; conditions: dose 5-20 µg/ml
[16] = organism: Homo sapiens; assay: Reversal of anticoagulation of dalteparin sodium in human whole blood assessed as restoration of normal clotting time at 5 to 20 ug/ml incubated for 5 mins by thromboelastography; assay type: tissue-based; conditions: dose 5-20 µg/ml
[17] = organism: Homo sapiens; assay: Reversal of anticoagulation of nadroparin calcium in human whole blood assessed as restoration of normal clotting time at 5 to 20 ug/ml incubated for 5 mins by thromboelastography; assay type: tissue-based; conditions: dose 5-20 µg/ml
[18] = organism: Homo sapiens; assay: Reversal of anticoagulation of unfractionated heparin in human whole blood assessed as restoration of normal coagulation rate at 5 to 20 ug/ml incubated for 5 mins by thromboelastography; assay type: tissue-based; conditions: dose 5-20 µg/ml
[19] = organism: Homo sapiens; assay: Reversal of anticoagulation of dalteparin sodium in human whole blood assessed as restoration of normal coagulation rate at 5 to 20 ug/ml incubated for 5 mins by thromboelastography; assay type: tissue-based; conditions: dose 5-20 µg/ml
[20] = organism: Homo sapiens; assay: Reversal of anticoagulation of enoxaparin sodium in human whole blood assessed as restoration of normal coagulation rate at 5 to 20 ug/ml incubated for 5 mins by thromboelastography; assay type: tissue-based; conditions: dose 5-20 µg/ml
[21] = organism: Homo sapiens; assay: Reversal of anticoagulation of dalteparin sodium in human whole blood assessed as restoration of normal clotting strength at 2 to 20 ug/ml incubated for 5 mins by thromboelastography; assay type: tissue-based; conditions: dose 2-20 µg/ml
[22] = Binding affinity to unfractionated heparin in saline at pH 7.4 assessed as increase in fluorescence by measuring inflection point by fluorescence titration method
[23] = Binding affinity to dalteparin sodium in saline at pH 7.4 assessed as increase in fluorescence by measuring inflection point by fluorescence titration method
[24] = organism: Homo sapiens; assay: Reversal of anticoagulation of enoxaparin sodium in human whole blood assessed as minimum effective dose incubated for 5 mins by thromboelastography; assay type: tissue-based
[25] = organism: Homo sapiens; assay: Reversal of anticoagulation of nadroparin calcium in human whole blood assessed as minimum effective dose incubated for 5 mins by thromboelastography; assay type: tissue-based
[26] = Effect on bleeding time in ICR mouse at 0.4 mg/kg, iv treated for 5 mins; assay type: toxicity, organism-based; conditions: in vivo
[27] = Induction of blood loss in ICR mouse at 0.4 mg/kg, iv treated for 5 mins; assay type: toxicity, organism-based; conditions: in vivo
[28] = tested on: Mus musculus; assay: In vivo antagonism of unfractionated heparin induced anticoagulation in ICR mouse assessed as blood loss at 0.4 mg/kg, iv administered via tail vein pretreated with heparin for 5 mins followed by compound addition and measured after 5 mins (reference value: 324.4 +/- 139.5 microL); assay type: functional
[29] = tested on: Mus musculus; assay: In vivo antagonism of dalteparin sodium induced anticoagulation in ICR mouse assessed as blood loss at 0.4 mg/kg, iv administered via tail vein pretreated with heparin for 5 mins followed by compound addition and measured after 5 mins (reference value: 324.4 +/- 139.5 microL); assay type: functional
[30] = tested on: Rattus norvegicus; assay: In vivo antagonism of enoxaparin sodium induced anticoagulation in Sprague-Dawley rat assessed as clotting time at 0.4 mg/kg, iv administered via tail vein pretreated with enoxaparin sodium for 5 mins followed by compound addition and measured after 2.5 mins by thromboelastography; assay type: functional
[31] = tested on: Rattus norvegicus; assay: In vivo antagonism of enoxaparin sodium induced anticoagulation in Sprague-Dawley rat assessed as clotting rate at 0.4 mg/kg, iv administered via tail vein pretreated with enoxaparin sodium for 5 mins followed by compound addition and measured after 2.5 mins by thromboelastography; assay type: functional
[32] = tested on: Rattus norvegicus; assay: (§1) In vivo antagonism of enoxaparin sodium induced anticoagulation in Sprague-Dawley rat assessed as restoration of normal clotting time at 1 mg/kg, iv administered via tail vein pretreated with enoxaparin sodium for 5 mins followed by compound addition and measured after 2.5 mins by thromboelastography; assay type: functional, organism-based
[33] = tested on: Rattus norvegicus; assay: as §1, with “rate” for “time”; assay type: functional, organism-based
[34] = Cytotoxicity against human MCF7 cells assessed as cell viability at 300 ug/ml incubated for 24 hrs by CCK-8 assay relative to control; assay type: toxicity, cell-based; conditions: at 300 µg/mL, read-out: Activity
[35] = Toxicity in iv dosed ICR mouse assessed as maximum tolerated dose administered through tail vein; assay type: organism-based; conditions: in vivo
[36] = Toxicity in ICR mouse assessed as histopathological changes in heart at 25 mg/kg, iv administered as single dose through tail vein and measured after 14 days by H and E staining based analysis; assay type: organism-based; conditions: in vivo, 336 h, time 14 day
[37] = Toxicity in ICR mouse assessed as histopathological changes in liver at 25 mg/kg, iv administered as single dose through tail vein and measured after 14 days by H and E staining based analysis; assay type: organism-based; conditions: in vivo, 336 h, time 14 day
[38] = Toxicity in ICR mouse assessed as histopathological changes in lungs at 25 mg/kg, iv administered as single dose through tail vein and measured after 14 days by H and E staining based analysis; assay type: organism-based, Lung; conditions: in vivo, 336 h, time 14 day
[39] = Blood compatibility in bovine plasma assessed as activated partial thromboplastin time at <45 ug/ml by turbidimetry method; assay type: toxicity, cell-free, Bos taurus; conditions: cattle, dose < 45 µg/ml
[40] = tested on: Erythrocyte; assay: Hemolytic activity in human red blood cells at 512 ug/ml; assay type: toxicity, cell-based; conditions: dose 512 µg/ml

In the case of `NCCOc1ccc(-c2cc[n+](Cc3ccc(C(c4ccc(C[n+]5ccc(-c6ccc(OCCN)c(OCCN)c6)cc5)cc4)(c4ccc(C[n+]5ccc(-c6ccc(OCCN)c(OCCN)c6)cc5)cc4)c4ccc(C[n+]5ccc(-c6ccc(OCCN)c(OCCN)c6)cc5)cc4)cc3)cc2)cc1OCCN.[Cl-].[Cl-].[Cl-].[Cl-]`, the Activity [1] is reported as 99%, the Activity [2] is reported as 97% and the Activity [3] is reported as 99%. For the same molecule, the Activity [4] was “Active”, the Ka [5] was 2.92e+07 M⁻¹ and the Ka [6] was 1.79e+07 M⁻¹. For the same molecule, the Ka [7] was 1.87e+07 M⁻¹, the -TdeltaS [8] was -4.32 kcal/mol and the -TdeltaS [9] was -2.05 kcal/mol. For the same molecule, the -TdeltaS [10] was -3.4 kcal/mol, the deltaG [11] was -10.5 kcal/mol and the deltaG [12] was -9.91 kcal/mol. For the same molecule, the deltaG [13] was -9.92 kcal/mol, the Activity [14] was “Active” and the Activity [15] was “Active”. The Activity [16] was “Active”, the Activity [17] was “Active” and the Activity [18] was “Active”. For the same molecule, the Activity [19] was “Active”, the Activity [20] was “Active” and the Activity [21] was “Active”. It also gave an IP [22] of 2.4, an IP [23] of 2.6 and an MED [24] of 4 µg/mL. For the same molecule, the MED [25] was 4 µg/mL, the Activity [26] was “Non-Toxic” and the Activity [27] was “Non-Toxic”. For the same molecule, the Activity [28] was 26.1 µL, the Activity [29] was 26 µL and the Time [30] was 3.63 min. The Activity [31] was 1.95 min, the Activity [32] was “Active” and the Activity [33] was “Active”. The viability at 24 h, 300 ug/ml [34] was > 80%, the MTD [35] was 25 mg/kg and the Activity [36] was “Non-Toxic”. The Activity [37] was “Non-Toxic”, the Activity [38] was “Non-Toxic” and the APTT [39] was 23 s. For the same molecule, the Activity [40] was “Non-Toxic”.
